# Measurements: ChEMBL document CHEMBL2440076, “New triarylpyrazoles as broad-spectrum anticancer agents: design, synthesis, and biological evaluation” (Eur J Med Chem, 2013)
# pIC50: −log10 of the molar value.
# How the values were obtained:
# MCF7 = experiment: Growth inhibition of human MCF7 cells assessed as cell growth at 10 uM after 48 hrs by sulforhodamine B assay; type: functional; conditions: MCF7, 48 h, read-out: Activity
# UO-31 = experiment: Growth inhibition of human UO31 cells assessed as cell growth at 10 uM after 48 hrs by sulforhodamine B assay; type: functional; conditions: UO-31, 48 h, read-out: Activity
# SW-620 [1] = experiment: Growth inhibition of human SW620 cells after 48 hrs by sulforhodamine B assay; type: functional; conditions: SW-620, 48 h
# HCT-15 = experiment: Growth inhibition of human HCT15 cells after 48 hrs by sulforhodamine B assay; type: functional; conditions: HCT-15, 48 h
# [2] = Growth inhibition of human HCC2998 cells after 48 hrs by sulforhodamine B assay; type: functional; conditions: HCC 2998, 48 h
# NCI-H460 = experiment: Growth inhibition of human NCI-H460 cells after 48 hrs by sulforhodamine B assay; type: functional; conditions: NCI-H460, 48 h
# HOP-92 [3] = experiment: Growth inhibition of human HOP92 cells after 48 hrs by sulforhodamine B assay; type: functional, cell-based; conditions: HOP-92, 48 h
# A549 = experiment: Growth inhibition of human A549/ATCC cells after 48 hrs by sulforhodamine B assay; type: functional; conditions: A549, 48 h
# RPMI-8226 = experiment: Growth inhibition of human RPMI8226 cells after 48 hrs by sulforhodamine B assay; type: functional, cell-based; conditions: RPMI-8226, 48 h
# K562 = experiment: Growth inhibition of human K562 cells after 48 hrs by sulforhodamine B assay; type: functional; conditions: K562, 48 h
# ACHN = experiment: Growth inhibition of human ACHN cells assessed as cell growth at 10 uM after 48 hrs by sulforhodamine B assay; type: functional; conditions: read-out: Activity
# SK-OV-3 = experiment: Growth inhibition of human SKOV3 cells assessed as cell growth at 10 uM after 48 hrs by sulforhodamine B assay; type: functional; conditions: SK-OV-3, 48 h, read-out: Activity
# [4] = Growth inhibition of human NCI-ADR-RES cells assessed as cell growth at 10 uM after 48 hrs by sulforhodamine B assay; type: functional; conditions: read-out: Activity
# OVCAR-4 = experiment: Growth inhibition of human OVCAR4 cells assessed as cell growth at 10 uM after 48 hrs by sulforhodamine B assay; type: functional; conditions: OVCAR-4, 48 h, read-out: Activity
# OVCAR-3 [5] = experiment: Growth inhibition of human OVCAR3 cells assessed as cell growth at 10 uM after 48 hrs by sulforhodamine B assay; type: functional; conditions: OVCAR-3, 48 h, read-out: Activity
# UACC-62 = experiment: Growth inhibition of human UACC62 cells assessed as cell growth at 10 uM after 48 hrs by sulforhodamine B assay; type: functional; conditions: UACC-62, 48 h, read-out: Activity
# IGROV-1 = experiment: Growth inhibition of human IGROV1 cells assessed as cell growth at 10 uM after 48 hrs by sulforhodamine B assay; type: functional; conditions: IGROV-1, 48 h, read-out: Activity
# SK-MEL-28 = experiment: Growth inhibition of human SK-MEL-28 cells assessed as cell growth at 10 uM after 48 hrs by sulforhodamine B assay; type: functional; conditions: SK-MEL-28, 48 h, read-out: Activity
# SNB-19 = experiment: Growth inhibition of human SNB19 cells assessed as cell growth at 10 uM after 48 hrs by sulforhodamine B assay; type: functional; conditions: SNB-19, 48 h, read-out: Activity
# SF-539 = experiment: Growth inhibition of human SF539 cells assessed as cell growth at 10 uM after 48 hrs by sulforhodamine B assay; type: functional; conditions: SF-539, 48 h, read-out: Activity
# SW-620 [6] = experiment: Growth inhibition of human SW620 cells assessed as cell growth at 10 uM after 48 hrs by sulforhodamine B assay; type: functional; conditions: SW-620, 48 h, read-out: Activity
# NCI-H522 = experiment: Growth inhibition of human NCI-H522 cells assessed as cell growth at 10 uM after 48 hrs by sulforhodamine B assay; type: functional; conditions: NCI-H522, 48 h, read-out: Activity
# HOP-92 [7] = experiment: Growth inhibition of human HOP92 cells assessed as cell growth at 10 uM after 48 hrs by sulforhodamine B assay; type: functional; conditions: HOP-92, 48 h, read-out: Activity
# T47D = experiment: Growth inhibition of human T47D cells after 48 hrs by sulforhodamine B assay; type: functional
# [8] = Growth inhibition of human Hs 578T cells after 48 hrs by sulforhodamine B assay; type: functional
# MDA-MB-231 = experiment: Growth inhibition of human MDA-MB-231 cells after 48 hrs by sulforhodamine B assay; type: functional; conditions: MDA-MB-231, 48 h
# TK-10 = experiment: Growth inhibition of human TK10 cells after 48 hrs by sulforhodamine B assay; type: functional; conditions: TK-10, 48 h
# CAKI-1 = experiment: Growth inhibition of human CAKI-1 cells after 48 hrs by sulforhodamine B assay; type: functional; conditions: CAKI-1, 48 h
# A498 = experiment: Growth inhibition of human A498 cells after 48 hrs by sulforhodamine B assay; type: functional, cell-based; conditions: A498, 48 h
# [9] = Growth inhibition of human NCI-ADR-RES cells after 48 hrs by sulforhodamine B assay; type: functional
# OVCAR-3 [10] = experiment: Growth inhibition of human OVCAR3 cells after 48 hrs by sulforhodamine B assay; type: functional, cell-based; conditions: OVCAR-3, 48 h
# Malme-3M = experiment: Growth inhibition of human MALME-3M cells after 48 hrs by sulforhodamine B assay; type: functional
# SNB-75 = experiment: Growth inhibition of human SNB75 cells after 48 hrs by sulforhodamine B assay; type: functional; conditions: SNB-75, 48 h
# HL-60(TB) = experiment: Growth inhibition of human HL-60(TB) cells assessed as cell growth at 10 uM after 48 hrs by sulforhodamine B assay; type: functional; conditions: HL-60, 48 h, read-out: Activity
# [11] = read-out: LC50 (the source's name)
structure (smiles),measurement,setting,value
O=C(Nc1cccc(-n2cc(-c3ccncc3)c(-c3ccc(Cl)c(O)c3)n2)c1)Nc1ccc(Cl)c(C(F)(F)F)c1,growth at 10 µM,MCF7,-16.6%
same,growth at 10 µM,UO-31,-6.09%
same,GI50,SW-620 [1],1.15 µM
same,TGI,SW-620 [1],4.16 µM
same,CC50,SW-620 [1]; [11],> 32.5 µM
same,GI50,HCT-15,0.867 µM
same,LC50,HCT-15,> 32.5 µM
same,TGI,HCT-15,13.8 µM
same,GI50,[2],1.06 µM
same,TGI,[2],4.12 µM
same,CC50,[2]; [11],20.7 µM
same,GI50,NCI-H460,1.01 µM
same,LC50,NCI-H460,> 32.5 µM
same,TGI,NCI-H460,4 µM
same,GI50,HOP-92 [3],0.376 µM
same,pIC50,HOP-92 [3],6.42
same,LC50,HOP-92 [3],13.5 µM
same,TGI,HOP-92 [3],1.46 µM
same,GI50,A549,0.927 µM
same,LC50 (concentration killing 50% of starting cells),A549,> 32.5 µM
same,TGI,A549,5.09 µM
same,GI50,RPMI-8226,0.58 µM
same,pIC50,RPMI-8226,6.24
same,TGI,RPMI-8226,2 µM
same,CC50,RPMI-8226; [11],> 32.5 µM
same,GI50,K562,0.921 µM
same,TGI,K562,> 32.5 µM
same,CC50,K562; [11],> 32.5 µM
same,growth at 10 µM,ACHN,6.62%
same,growth at 10 µM,SK-OV-3,7.47%
same,growth at 10 µM,[4],-16.9%
same,growth at 10 µM,OVCAR-4,-3.42%
same,growth at 10 µM,OVCAR-3 [5],-43%
same,growth at 10 µM,UACC-62,-55.1%
same,growth at 10 µM,IGROV-1,10.4%
same,growth at 10 µM,SK-MEL-28,-31.5%
same,growth at 10 µM,SNB-19,-28.8%
same,growth at 10 µM,SF-539,-26.1%
same,growth at 10 µM,SW-620 [6],-19.7%
same,growth at 10 µM,NCI-H522,-30%
same,growth at 10 µM,HOP-92 [7],-30.7%
same,GI50,T47D,1.12 µM
same,TGI,T47D,> 32.5 µM
same,CC50,T47D; [11],> 32.5 µM
same,GI50,[8],0.797 µM
same,TGI,[8],11.2 µM
same,CC50,[8]; [11],> 32.5 µM
same,GI50,MDA-MB-231,0.488 µM
same,LC50,MDA-MB-231,11.4 µM
same,TGI,MDA-MB-231,1.44 µM
same,GI50,TK-10,1.5 µM
same,TGI,TK-10,11.9 µM
same,CC50,TK-10; [11],> 32.5 µM
same,GI50,CAKI-1,0.795 µM
same,TGI,CAKI-1,2.63 µM
same,CC50,CAKI-1; [11],> 32.5 µM
same,GI50,A498,1.4 µM
same,pIC50,A498,5.85
same,TGI,A498,6.9 µM
same,CC50,A498; [11],> 32.5 µM
same,GI50,[9],0.844 µM
same,TGI,[9],2.75 µM
same,CC50,[9]; [11],> 32.5 µM
same,GI50,OVCAR-3 [10],0.83 µM
same,pIC50,OVCAR-3 [10],6.08
same,TGI,OVCAR-3 [10],2.09 µM
same,CC50,OVCAR-3 [10]; [11],> 32.5 µM
same,GI50,Malme-3M,0.576 µM
same,LC50 (concentration killing 50% of starting cells),Malme-3M,9.58 µM
same,TGI,Malme-3M,1.65 µM
same,GI50,SNB-75,0.678 µM
same,"LC50 (lethal concentration, 50% net cell kill)",SNB-75,> 32.5 µM
same,TGI,SNB-75,3.2 µM
same,growth at 10 µM,HL-60(TB),-11.2%
